# Test results as given in patent US20060171945A1, “Ip receptor antagonists for the treatment of pathological uterine conditions” (priority 2003, published 2006).
# Several values for one entry are separate records, joined by “and”; a condition that tells them apart may be missing. Equal values may be shown once.
# Tests used:
# PGES = biological target: T1, PGES (Homo sapiens, UniProt O14684); conditions: read-out: IC50 for inhibition of PGES activity; cited from earlier work
# T1 sequence (O14684 1-152): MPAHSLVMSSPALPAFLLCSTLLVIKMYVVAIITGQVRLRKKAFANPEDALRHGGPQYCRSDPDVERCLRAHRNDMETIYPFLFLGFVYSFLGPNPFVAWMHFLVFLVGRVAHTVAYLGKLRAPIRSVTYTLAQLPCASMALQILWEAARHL
# FP receptor = conditions: cited from earlier work
# COX-2 = biological target: T2, COX-2 (Homo sapiens, UniProt P35354); conditions: cited from earlier work
# T2 sequence (P35354 18-604): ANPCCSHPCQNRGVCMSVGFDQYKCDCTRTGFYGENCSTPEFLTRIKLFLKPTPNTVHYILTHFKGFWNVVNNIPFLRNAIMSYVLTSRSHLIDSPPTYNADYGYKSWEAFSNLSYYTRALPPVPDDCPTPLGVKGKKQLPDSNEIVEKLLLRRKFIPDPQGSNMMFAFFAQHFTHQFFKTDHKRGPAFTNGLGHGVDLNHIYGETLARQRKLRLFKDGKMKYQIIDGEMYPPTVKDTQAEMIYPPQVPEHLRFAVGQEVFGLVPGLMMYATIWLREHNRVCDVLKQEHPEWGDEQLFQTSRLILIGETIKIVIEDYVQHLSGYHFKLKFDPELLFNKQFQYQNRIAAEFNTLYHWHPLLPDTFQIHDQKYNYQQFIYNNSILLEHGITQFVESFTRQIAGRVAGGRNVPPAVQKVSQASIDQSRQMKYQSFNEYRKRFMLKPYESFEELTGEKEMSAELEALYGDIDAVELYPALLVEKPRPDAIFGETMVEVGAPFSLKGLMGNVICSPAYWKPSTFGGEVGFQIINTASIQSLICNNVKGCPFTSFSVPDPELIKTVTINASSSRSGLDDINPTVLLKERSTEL
# [1] = tested on: endometrial epithelial and stromal cells; conditions: previously reported; cited from earlier work
# EP2 = EP2 (Homo sapiens, UniProt P43116); conditions: 10 μM; cited from earlier work
# DP = conditions: 10 μM; cited from earlier work
# EP4 = conditions: 10 μM; cited from earlier work
# TP = conditions: 10 μM; cited from earlier work
# [2] = tested on: endometrial stromal (ES) cells; assay: Proliferation assay (CellTiter 96) in ES cells; assay type: cell-based, human; conditions: 100 nM iloprost, 24 hours, n=6, mean±SEM
# Description: (§1) The Ishikawa endometrial epithelial cell line (Ishikawa cells) and endometrial stromal (ES) cells were propagated in DMEM F12 culture medium with glutamax (Invitrogen Ltd., Paisley, UK) supplemented with 10% foetal bovine serum (PAA Laboratories Ltd., Yeovil, UK). Endometrial stromal cells were a generous gift from Professor R W Kelly and they were derived from human endometrial biopsy tissue as described previously (Dunn et al (2002) J Clin Endocrinol Metab 87, 1898-1901). For cyclic AMP assay, cells were grown in 6 well plates to 70% confluence. They were starved overnight in serum free medium in the presence of indomethacin (3 μg/ml). Cells were then incubated in the same medium containing 1-methyl-3-isobutylxanthine at 37° C. for 30 minutes and treated with control medium or 100 nM iloprost for 10 minutes at 37° C. […] Data are presented as mean±SEM percentage increase in cAMP after treatment with iloprost, where the increase was calculated relative to the control samples. […] Proliferation was assessed using a colorimetric method, the CellTiter 96 Aqueous One Solution Cell Proliferation Assay (Promega, Southampton, UK) according to manufacturer's instructions. Twenty microlitres of the assay reagent (containing a tetrazolium compound, inner salt and an electron coupling reagent) were added to each well and samples were incubated at 37° C. for 2 hours and plates were read at 492 nm. […]
# IP receptor [3] = biological target: T3, IP receptor (Homo sapiens, UniProt P43119); assay: Whole tissue cyclic AMP assay in endometrial biopsy tissue; assay type: cell-based; conditions: 100 nM iloprost, 10 min, n=4
# T3 construct: from tissue; host or cells: minced human endometrial biopsy tissue
# Procedure: Endometrial biopsies from across the menstrual cycle (n=8) were minced finely with scissors and divided into three portions. The tissue was incubated is overnight at 37° C. in a humidified 5% CO2 incubator in 2 ml RPMI (Sigma, UK) medium containing, 2 mmol” L-glutamine, 100 IU penicillin and 100 μg streptomycin and 3 μg/ml indomethacin (Sigma, Poole, UK). Following overnight incubation, the tissue was incubated in the same medium containing 1-methyl-3-isobutylxanthine (Sigma) at 37° C. for 30 min. It was then treated with control medium or 100 nM iloprost (a gift from Schering Health Care, Burgess Hill, UK) for 10 min. at 37° C. and lysed in 0.1M HCl and frozen until assayed. cAMP concentration was measured by ELISA (Biomol, Affiniti, Exeter, UK) according to the manufacturer's instructions and normalised to protein concentration determined by a modification of the method of Lowry (Bio-Rad, Hemel Hempstead, UK).
# IP receptor [4] = biological target: T3, IP receptor; assay: Cyclic AMP assay in endometrial stromal (ES) cells; assay type: cell-based; conditions: 100 nM iloprost, 10 min, n=3, mean±SEM
# Description: as §1
# [5] = tested on: Ishikawa endometrial epithelial cell line; assay: Proliferation assay (CellTiter 96) in Ishikawa cells; assay type: cell-based, human; conditions: 100 nM iloprost, 24 hours, n=5, mean±SEM
# Description: as §1
# IP receptor [6] = biological target: T3, IP receptor; assay: Cyclic AMP assay in Ishikawa cells; assay type: cell-based; conditions: 100 nM iloprost, 10 min, n=3, mean±SEM
# Description: as §1
# T3 sequence (P43119 whole entry): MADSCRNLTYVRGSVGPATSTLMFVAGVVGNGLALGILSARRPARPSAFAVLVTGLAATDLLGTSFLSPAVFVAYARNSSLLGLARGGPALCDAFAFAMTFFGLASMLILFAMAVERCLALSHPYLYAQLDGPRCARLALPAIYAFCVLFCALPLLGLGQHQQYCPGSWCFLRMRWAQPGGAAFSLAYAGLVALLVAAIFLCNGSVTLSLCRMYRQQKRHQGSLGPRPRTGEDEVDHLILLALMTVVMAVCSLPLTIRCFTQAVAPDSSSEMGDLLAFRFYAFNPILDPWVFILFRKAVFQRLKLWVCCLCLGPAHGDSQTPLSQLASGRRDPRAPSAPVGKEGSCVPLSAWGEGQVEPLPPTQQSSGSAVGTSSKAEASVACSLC
# Sequence of EP2 (P43116 whole entry): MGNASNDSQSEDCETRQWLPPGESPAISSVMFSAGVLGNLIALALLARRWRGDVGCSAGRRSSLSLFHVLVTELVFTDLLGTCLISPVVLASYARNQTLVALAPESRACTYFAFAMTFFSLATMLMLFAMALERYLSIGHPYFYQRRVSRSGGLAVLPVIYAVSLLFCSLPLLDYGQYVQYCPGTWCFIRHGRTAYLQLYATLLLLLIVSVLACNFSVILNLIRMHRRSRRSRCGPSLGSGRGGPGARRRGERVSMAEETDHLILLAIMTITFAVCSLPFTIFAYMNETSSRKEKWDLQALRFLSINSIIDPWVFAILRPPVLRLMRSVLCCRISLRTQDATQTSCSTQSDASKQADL
structure (smiles),measurement,setting,value
CSc1ccc(/C=C2/C(C)=C(CC(=O)O)c3cc(F)ccc32)cc1 [sulindac sulphide],IC50,PGES,80 µM
CCCCNC(=O)NS(=O)(=O)c1ccc(C)cc1 [tolbutamide],FP receptor antagonist potency,FP receptor,very weak antagonists
CS(=O)(=O)Nc1cc2c(cc1Sc1ccc(F)cc1F)C(=O)CC2 [L 475 L337],specificity for COX-2 inhibition over COX-1 inhibition,COX-2,500 fold
CCCCC/C=C\C\C=C/C=C/C=C/[C@@H](SC[C@H](NC(=O)CC[C@H](N)C(=O)O)C(=O)NCC(=O)O)[C@@H](O)CCCC(=O)O [leukotriene C4],IC50,PGES,5 µM
CCCCC[C@H](O)/C=C/[C@@H]1[C@@H](C/C=C\CCCC(=O)O)[C@@H](O)C[C@H]1O [PGF2α],increase in proliferation,[1],31%
"O=C(O)CCC/C=C\C[C@@H]1[C@@H](/C=C/[C@H](O)C2Cc3ccccc3C2)[C@@H](F)C[C@@H]1O [AL-8810, (5Z, 13E)-(9S, 11S,15R)-9,15-dihydroxy-11-fluoro-15-(2-indanyl)-16, 17, 18, 19, 20-pentanor-5,13-prostadienoic acid]",inhibition of functional responses of EP2 receptor,EP2,not to significantly inhibit
same,inhibition of functional responses of DP receptor,DP,not to significantly inhibit
same,inhibition of functional responses of EP4 receptor,EP4,not to significantly inhibit
same,inhibition of functional responses of TP receptor,TP,not to significantly inhibit
same,FP receptor antagonist potency,FP receptor,micromolar potency
CC#CCC(C)[C@H](O)/C=C/[C@@H]1[C@H]2C/C(=C/CCCC(=O)O)C[C@H]2C[C@H]1O (stereo partly shown) [iloprost],"proliferation, of control values",[2],112%±3.8%
same,fold increase in cAMP generation,IP receptor [3]; samples from proliferative phase of the menstrual cycle,4.83±0.74 fold
same,fold increase in cAMP generation,IP receptor [3]; samples from secretory phase of the menstrual cycle,2.07±0.38 fold and 2.07±0.39 fold
same,"cAMP generation, of control values",IP receptor [4],"37,936%±18,464%"
same,"proliferation, of control values",[5],109.4%±2.4%
same,"cAMP generation, of control values",IP receptor [6],166%±27.6%
Cc1ccc(S(=O)(=O)NC(=O)NN2CCCCCC2)cc1 [tolazamide],FP receptor antagonist potency,FP receptor,very weak antagonists
CCCCC[C@H](O)/C=C/[C@H]1[C@H](O)CC(=O)[C@@H]1C/C=C\CCCC(=O)O [PGE2],increase in proliferation,[1],25%
"CS(=O)(=O)Nc1ccc([N+](=O)[O-])cc1Oc1ccccc1 [Nimesulide, N-(4-nitro-2-phenoxyphenyl) methanesulfonamide]",specificity for COX-2 inhibition over COX-1 inhibition,COX-2,100 fold
